This note sets out measurements from US20060211744A1, “3-Pyridinecarboxamide reduces nerve degeneration” (Children's Medical Center, priority 2005, published 2006).

Type in all cases: cell-based
Assay [1] has as its system cultured DRG neurons (transected axons). Nature of the assay: Axon degeneration after transection of axons of cultured DRG neurons (Wallerian degeneration). As to the method:
As a first step in examining the role of NAD in Wallerian degeneration, we used an ultra-sensitive high-performance liquid chromatography (HPLC) method (Micheli and Sestini, 1997) to measure the concentration of NAD and its derivatives in degenerating axons. To do this, the acidic lysates were prepared from axonal segments collected at different time points after transecting the axons from cultured dorsal root ganglia (DRG) and resolved by reverse-phase chromatography. 2 hr after axotomy, when the transected axons were still morphologically indistinguishable from their uncut controls, NAD levels began to decrease. This NAD decrease continued over the course of degeneration, reaching about 50% at 4 hr post-axotomy, to almost undetectable levels by 6 hr after axotomy, when early morphological signs of degeneration began to develop. […] By a similar approach of alkaline extraction (Micheli and Sestini, 1997), it has been difficult for us to detect NADH in the axonal extracts, presumably due to the low abundance of NADH and the high NAD/NADH ratio reported in mammalian cells (Zhang et al., 2002, Kasischke et al., 2004, Kannurpatti et al., 2004).
To definitively determine whether preventing the local decrease in NAD levels could mediate axon protection, we employed soma-free axonal segments that have been separated from their soma as models to examine the protective effects of different pharmacological treatments. It has been shown that exogenously provided NAD, when directly added to the culture medium of DRG neurons, can be transported across the axonal membrane (Araki et al., 2004). Thus, we first examined the protective effects of different concentrations of NAD added to the culture before or after axon transection and removal of ganglia.
To further assess the local and nuclear contribution to such an NAD-dependent protection, we compared the protective effects of NAD provided at different time points. […] In this respect, our results are inconsistent with those shown by Araki et al (2004), possibly due to the different concentrations of NAD used in our studies (1-20 mM) and by Araki et al (0.1 to 1 mM).
We next attempted to explore the possible mechanisms underlying this local NAD-dependent axon protection. […] A possible explanation for this discrepancy between Araki et al (2004) and our results is the different approaches used to block Sirt1 activity. […] It is known that […], other sirturins exist and some of these proteins are localized in the cytoplasmic compartment (Onyango et al., 2002; North et al., 2003).

Assay [2] deals with superior sympathetic ganglia (SCGs) and other neuronal types expressing mutant Nmnat1. Nature of the assay: Axon degeneration induced by over-expression of mutant Nmnat1 in cultured neurons. As to conditions: no axotomy. The text has this: We next examined whether decreasing neuronal NAD levels is sufficient to induce axon degeneration in intact neurons. By sequence alignment, a conserved (T/H)XGH motif has been identified in the N-terminus of all Nmnat proteins from different species (Saridakis et al., 2001). This motif likely represents a critical active site, as a mutant enzyme with a point mutation at the last amino acid (H to A) loses its catalytic activity but retains its ability to bind the nicotinamide mononucleotide (NMN) substrate (Saridakis et al., 2001). Thus, we made a mutant Nmnat1 in which the critical histidine residue at amino acid 24 in this active site motif was substituted with alanine. Since most of the NAD in mammalian cells, except for liver and kidney cells, is synthesized by recycling degraded NAD products such as nicotinamide via the salvage pathway (Shibata et al., 1991, Rongvaux et al., 2003), over-expressing this mutant Nmnat1 would be expected to sequester the limited substrates, thus decreasing cellular NAD levels. […] As a result, neurons expressing this mutant Nmnat1 developed signs of axon degeneration in the absence of axotomy, concomitant with decreases in neuronal NAD and ATP levels.
In addition, a caspase inhibitor Z-DEVD-fink also had no effect on the axon degeneration induced by this mutant Nmnat1 expression.

Assay [3] concerns cultured hippocampal neurons. The experiment in a line: Synaptic loss and process degeneration in cultured hippocampal neurons (dominant-negative Nmnat1). An excerpt: We next attempted to examine whether decreasing NAD levels can induce similar “dying-back” axon degeneration in neurons with established synaptic connections. Such experiments might allow us to assess whether the degenerative processes in axons and other neuronal structures, including synaptic structures and dendritic processes, share similar mechanisms. To do this, we introduced both wild type and dominant negative Nmnat1 into cultured hippocampal neurons at 20 days in vitro (DIV 20), when their synaptic connections have formed and matured (Brewer et al. 1993), and examined their effects on axons as well as dendrites and synapses. As a conventional approach to visualize these neuronal structures, we also co-infected the hippocampal neurons with HSV expressing YFP. […] Moreover, neuronal NAD levels declined from 24-48 hr post-infection with viruses expressing dominant-negative Nmnat1 but not wild type Nmnat1 or YFP. Thus, we decided to focus our analysis on the first 60 hours post-infection.
To monitor changes in synaptic structures, we co-infected DIV20 neurons with HSV expressing YFP and wild type or the mutant Nmnat1, and quantified both spine density and the length and branching of axons and dendrites. As the density of dendritic spines has been considered a reliable indicator for synapse number (reviewed by Hering and Sheng, 2001), we performed high-resolution YFP imaging in neurons co-expressing YFP and Nmnat1 proteins at the indicated time points post-infection to measure the spine densities in these co-infected neurons. Dendrite length and branching patterns were analyzed using Sholl's method of regularly spaced concentric circles centered on the neuronal soma (Sholl, 1953). […]
In the experiments described above, we also performed immunostaining with antibodies against the presynaptic marker bassoon, and found a decrease of positively-stained synaptic structures. However, due to the complex morphology of the axons that makes it extremely difficult to quantify the axonal length in DIV20 hippocampal neurons, we […]. […]

For the molecule `NC(=O)c1ccc[n+]([C@@H]2O[C@H](COP(=O)([O-])OP(=O)(O)OC[C@H]3O[C@@H](n4cnc5c(N)ncnc54)[C@H](O)[C@@H]3O)[C@@H](O)[C@H]2O)c1` [NAD, nicotinamide adenine dinucleotide], the “concentrations resulting in significant protective effects on axon degeneration” value in assay [1] (added to culture medium of DRG neurons) was 1 to 20 mM. As to `COC(=O)CC[C@H](NC(=O)[C@H](CC(=O)OC)NC(=O)OCc1ccccc1)C(=O)N[C@H](C(=O)N[C@@H](CC(=O)OC)C(=O)CF)C(C)C` [Z-DEVD-fink], the “axon degeneration induced by mutant Nmnat1 expression” value in assay [2] was “no effect”. For the molecule `Oc1ccc(C=Cc2cc(O)cc(O)c2)cc1` [resveratrol], the “extent of axon degeneration” value in assay [1] (a range of concentrations) is “failed to observe any significant change”. For the same molecule, the “changes (spine density, dendrites) induced by dominant-negative Nmnat1” value in assay [3] (DIV20 hippocampal neurons) is recorded as “did not affect the changes”. Regarding `CC(NC(=O)c1ccccc1/N=C/c1c(O)ccc2ccccc12)c1ccccc1` (stereo not drawn) [sirtinol], in assay [1] (sirturin inhibitors, nicotinamide at 50 μM), the “attenuation of the protective effect of Nmnat1 or NAD” value is “did not attenuate the protective effect”. Also, in assay [3] (from 50 to 100 μM, up to 72 hr), the “dendritic spine quantity or structure, compound alone” value is given as “did not induce significant changes”.
